# Assay results from the SangsterLogP compilation.
# Experiment: method code SF-GLC, from DOI: 10.1016/s0045-6535(99)00157-5
row,SMILES,logP
1,ClCC1(CCl)C(=C(Cl)Cl)C2CC1C(Cl)(Cl)C2Cl (stereo not drawn),5.44
2,ClCC1(C(Cl)Cl)C2CC(Cl)(Cl)C1(C(Cl)Cl)C(Cl)C2Cl (stereo not drawn),5.8
3,CC1(C(Cl)Cl)C2C(Cl)C(Cl)C1(C(Cl)Cl)C(Cl)C2Cl (stereo not drawn),5.52
4,ClCC1(CCl)C2[C@@H](Cl)[C@H](Cl)C1(C(Cl)Cl)[C@@H](Cl)[C@@H]2Cl,5.57
5,ClC=C1C2C(Cl)C(Cl)C(C2Cl)C1(CCl)CCl (stereo not drawn),5.35
6,ClCC1(C(Cl)Cl)C2CC(Cl)(Cl)C1(C(Cl)Cl)CC2(Cl)Cl (stereo not drawn),5.96
7,ClCC1(C(Cl)Cl)C2CC(Cl)C1(C(Cl)Cl)CC2(Cl)Cl (stereo not drawn),5.75
8,CC1(CCl)C2CC(Cl)(Cl)C1(C(Cl)Cl)CC2Cl (stereo not drawn),5.49
9,ClCC1(C(Cl)Cl)C2C(Cl)CC1(C(Cl)Cl)C(Cl)C2Cl (stereo not drawn),5.19
10,ClCC1(CCl)C2C(Cl)C(Cl)(Cl)C1(C(Cl)Cl)CC2(Cl)Cl (stereo not drawn),6.26
11,ClCC1(C(Cl)Cl)C(=C(Cl)Cl)C2CC1C(Cl)(Cl)C2Cl (stereo not drawn),5.49
12,ClCC12CCC(C(Cl)C1(Cl)Cl)C2(C(Cl)Cl)C(Cl)Cl (stereo not drawn),5.49
13,ClCC1(CCl)C2C(Cl)C(Cl)C1(CCl)C(Cl)(Cl)C2Cl (stereo not drawn),5.74
14,ClC=C1C2CC(C1(CCl)CCl)C(Cl)(Cl)C2Cl (stereo not drawn),5.2
15,C[C@]1(C(Cl)Cl)[C@H]2CC(Cl)(Cl)[C@]1(C(Cl)Cl)CC2(Cl)Cl,5.9
16,ClC[C@@]1(C(Cl)Cl)[C@@H]2CC(Cl)(Cl)[C@@]1(C(Cl)Cl)[C@H](Cl)C2(Cl)Cl,6.64
17,ClC[C@@]1(C(Cl)Cl)C2[C@@H](Cl)[C@H](Cl)C1(C(Cl)Cl)[C@@H](Cl)[C@@H]2Cl,5.89
18,ClCC1(CCl)[C@H]2CC(Cl)(Cl)[C@]1(CCl)[C@@H](Cl)[C@@H]2Cl,5.23
